Read-outs that look alike come from different tables or passages of the source.
Experiments:
[1] = test system: D type HBV in primary human hepatocytes (HBsAg); experiment: microbe, parasite or virus in culture; assay type: cell-based; conditions: Hepatitis B virus, Hepatocyte
Procedure: (§1) The mouse liver perfusion was applied to isolate PHHs. The isolated hepatocytes were further purified by Percoll. The cells were resuspended with culture media and seeded into the 96-well plates (6×10^4 cell/well) or 48-well plates (1.2×10^5 cell/well). The PHHs were infected with a D type HBV one day post seeding (day 1).
(§2) On day 2, the test compounds were diluted and added into the cell culture plates. The culture media containing the compounds were refreshed every other day. The cell culture supernatants were collected on day 8 for the HBV DNA and antigen determinations.
(§3) The compounds were tested at 7 concentrations, 3-fold dilution, in triplicate.
(§4) Two compounds were tested at 5×5 matrix, in triplicate plates.
(§5) HBsAg/HBeAg in the culture supernatants harvested on days 8 were measured by the HBsAg/HBeAg ELISA kit (Autobio) according to the manual. The samples were diluted with PBS to get the signal in the range of the standard curve. The inhibition rates were calculated with the formula below. The combination effect was analyzed by the MacSynergy software.
% Inh. HBsAg=[1-HBsAg quantity of sample/HBV quantity of DMSO control]×100.

[2] = test system: D type HBV in primary human hepatocytes (HBeAg); experiment: microbe, parasite or virus in culture; assay type: cell-based; conditions: Hepatitis B virus, Hepatocyte
Procedure: as §1, §2, §3, §4, §5
% Inh. HBeAg=[1-HBeAg quantity of sample/HBV quantity of DMSO control]×100.

[3] = read-out: AVERAGE % INHIBITION, IFNα2a 0.00 IU/mL, COMPOUND 22 61.73 μM
[4] = read-out: AVERAGE % INHIBITION, IFNα2a 0.00 IU/mL, COMPOUND 22 185.19 μM
[5] = read-out: AVERAGE % INHIBITION, IFNα2a 0.00 IU/mL, COMPOUND 22 555.56 μM
[6] = read-out: AVERAGE % INHIBITION, IFNα2a 0.00 IU/mL, COMPOUND 22 1666.67 μM
[7] = read-out: AVERAGE % INHIBITION, IFNα2a 0.00 IU/mL, COMPOUND 22 5000.00 μM

O=C(Nc1ccc(F)c(F)c1)c1cc(S(=O)(=O)NC2CCCC2)ccc1F [Compound 22]
inhibition at 0.06173 µM ([1]; read-out: AVERAGE % INHIBITION HBsAg, COMPOUND 22 61.73 nM alone): -9.16% | inhibition at 0.18519 µM ([1]; read-out: AVERAGE % INHIBITION HBsAg, COMPOUND 22 185.19 nM alone): -10.2% | inhibition at 0.55556 µM ([1]; read-out: AVERAGE % INHIBITION HBsAg, COMPOUND 22 555.56 nM alone): -3.82% | inhibition at 1.66667 µM ([1]; read-out: AVERAGE % INHIBITION HBsAg, COMPOUND 22 1666.67 nM alone): 20.6% | inhibition at 5 µM ([1]; read-out: AVERAGE % INHIBITION HBsAg, COMPOUND 22 5000.00 nM alone): 31% | inhibition at 61.73 µM [1, 3]: -13.8% | inhibition at 185.19 µM [1, 4]: -10.6% | inhibition at 555.56 µM [1, 5]: -5.08% | inhibition at 1666.67 µM [1, 6]: 10.3% | inhibition at 5000 µM [1, 7]: 23.1% | inhibition at 0.061728 µM ([1]; read-out: AVERAGE % INHIBITION, TAF 0 nM, COMPOUND 22 61.728 nM): -0.32% | inhibition at 0.18519 µM ([1]; read-out: AVERAGE % INHIBITION, TAF 0 nM, COMPOUND 22 185.19 nM): 2.37% | inhibition at 0.55556 µM ([1]; read-out: AVERAGE % INHIBITION, TAF 0 nM, COMPOUND 22 555.56 nM): -2.17% | inhibition at 1.6667 µM ([1]; read-out: AVERAGE % INHIBITION, TAF 0 nM, COMPOUND 22 1666.7 nM): 17.7% | inhibition at 5 µM ([1]; read-out: AVERAGE % INHIBITION, TAF 0 nM, COMPOUND 22 5000 nM): 20.7% | EC50 ([1]; read-out: Inhibitor B EC50 HBsAg): 12.8 µM | EC50 ([1]; read-out: Inhibitor EC50): 12.8 µM | inhibition at 0.06173 µM ([2]; read-out: AVERAGE % INHIBITION HBeAg, COMPOUND 22 61.73 nM alone): -16.8% | inhibition at 0.18519 µM ([2]; read-out: AVERAGE % INHIBITION HBeAg, COMPOUND 22 185.19 nM alone): -14.6% | inhibition at 0.55556 µM ([2]; read-out: AVERAGE % INHIBITION HBeAg, COMPOUND 22 555.56 nM alone): -7.23% | inhibition at 1.66667 µM ([2]; read-out: AVERAGE % INHIBITION HBeAg, COMPOUND 22 1666.67 nM alone): 8.5% | inhibition at 5 µM ([2]; read-out: AVERAGE % INHIBITION HBeAg, COMPOUND 22 5000.00 nM alone): 21.7% | inhibition at 61.73 µM [2, 3]: -7.2% | inhibition at 185.19 µM [2, 4]: -9.57% | inhibition at 555.56 µM [2, 5]: -8.17% | inhibition at 1666.67 µM [2, 6]: 5.92% | inhibition at 5000 µM [2, 7]: 20.9% | inhibition at 0.061728 µM ([2]; read-out: AVERAGE % INHIBITION, TAF 0.00 nM, COMPOUND 22 61.728 nM): -6.71% | inhibition at 0.18519 µM ([2]; read-out: AVERAGE % INHIBITION, TAF 0.00 nM, COMPOUND 22 185.19 nM): -12.4% | inhibition at 0.55556 µM ([2]; read-out: AVERAGE % INHIBITION, TAF 0.00 nM, COMPOUND 22 555.56 nM): -5.06% | inhibition at 1.6667 µM ([2]; read-out: AVERAGE % INHIBITION, TAF 0.00 nM, COMPOUND 22 1666.7 nM): 10.1% | inhibition at 5 µM ([2]; read-out: AVERAGE % INHIBITION, TAF 0.00 nM, COMPOUND 22 5000 nM): 29.7% | EC50 ([2]; read-out: Inhibitor B EC50 HBeAg): 10.7 µM | EC50 ([2]; read-out: Inhibitor EC50): 10.7 µM

Reference: US20220265817A1, “THERAPEUTIC COMPOSITIONS AND METHODS FOR TREATING HEPATITIS B” (priority 2017, published 2022)
